Assay results published in patent publication US10889805B2, “Intestinal epithelioid cells” (National Institutes of Biomedical Innovation, Health and …, priority 2015, dated 2021).

What was measured:
HiPS-ELC-TFs = assay: TEER of HiPS-ELC-TFs (tight junction function); format: cell-based, human; conditions: under action of C10 (tight junction opener); without C10 about 430; FIG. 18A
Source text: The tight junction function was confirmed by measuring TEER.

CYP3A4 [1] = system: CYP3A4
Source text: (§1) As comparative cells, Caco-2 cells and LS180 cells were similarly investigated.

ANPEP = ANPEP expression by quantitative real-time RT-PCR in cells differentiating from human iPS cells to enterocyte-like cells; format: cell-based; conditions: compound added with BIO and DAPT, 5 days culture; versus control without the compounds; FIG. 2B
Method: (§2) The definitive endoderm cells generated from the human iPS cell line (Tic) by the method described in Example 1 above were further cultured for 15 days using the medium 3. During a period from day 4 to day 19 after the initiation of differentiation induction, BIO (5 μM) and DAPT (10 μM) were added to the culture system. Simultaneously with the addition of the BIO and the DAPT, the cells were further cultured for 5 days using the medium 3 supplemented with any one of phorbol-myristate-acetate (PMA), transforming growth factor β1 (TGEβ1), Wortmannin, Noggin, SB431542, Follistatin, EGF, R-spondin1, Pentagastrin, or Wnt3a (FIG. 2A and FIG. 3A).
(§3) With regard to the measurement of the enterocyte markers ANPEP and VILLIN, each of the enterocyte markers was measured by a quantitative real-time RT-PCR method using SYBR Green gene expression assays (APPLIED BIOSYSTEMS). […] Thus, high expressions of ANPEP and VILLIN were found when the cells were cultured in the system containing SB431542, EGF, or Wnt3a.
The quantitative real-time RT-PCR was performed by the following method. With the use of ISOGEN (NIPPON GENE), total RNA was collected from the enterocyte-like cells obtained by differentiation induction from the human iPS cells. Each total RNA was treated with RNase-free DNaseI (NEW ENGLAND BIOLABS), and then subjected to a reverse transcription reaction using […] VILO cDNA Synthesis Kit (INVITROGEN) to synthesize complementary DNA (cDNA). As a positive control, the total RNA (CLONTECH, BIOCHAIN four lots in total) of a human adult small intestine (human adult intestine: hereinafter sometimes referred to as “AI”) tissue to be used was similarly subjected to cDNA synthesis. A quantitative real-time RT-PCR method using SYBR Green gene expression assays (APPLIED BIOSYSTEMS) was performed, and quantification was performed with STEPONEPLUS real-time PCR System (APPLIED BIOSYSTEMS).

VILLIN = VILLIN expression by quantitative real-time RT-PCR in cells differentiating from human iPS cells to enterocyte-like cells; format: cell-based; conditions: compound added with BIO and DAPT, 5 days culture; versus control without the compounds; FIG. 3B
Method: as §2, §3
The quantitative real-time RT-PCR was performed by the following method. […] A quantitative real-time RT-PCR method using SYBR Green gene expression assays (APPLIED BIOSYSTEMS) was performed, and quantification was performed with STEPONEPLUS real-time PCR System (APPLIED BIOSYSTEMS).

CYP3A4 [2] = system: CYP3A4; remark: listed apart in the source
Method: As control cells, Caco-2 cells were similarly subjected to measurement. The expression level of the gene was measured by a real-time RT-PCR method.
as §1

Molecule: CCCCCCCCCC(=O)O [C10, capric acid]
- TEER value of the HiPS-ELC-TFs (HiPS-ELC-TFs): ~0 Ω·cm^2

Molecule: CCC1(c2ccccc2)C(=O)NC(=O)NC1=O [PB, phenobarbital]
- CYP3A4 expression induction (CYP3A4 [1]): significant expression induction

Molecule: CCCCCCCCCCCCCC(=O)O[C@@H]1[C@@H](C)[C@@]2(O)[C@@H](C=C(CO)C[C@]3(O)C(=O)C(C)=C[C@@H]23)[C@@H]2C(C)(C)[C@]12OC(C)=O [PMA, phorbol-myristate-acetate]
- expression of ANPEP (ANPEP): high value

Molecule: NC(=O)c1ccc(-c2nc(-c3ccc4c(c3)OCO4)c(-c3ccccn3)[nH]2)cc1 [SB431542]
- expression of VILLIN (VILLIN): high value
- expression of ANPEP (ANPEP): high value

Molecule: C=C1CC[C@H](O)C/C1=C/C=C1\CCC[C@]2(C)[C@@H]([C@H](C)CCCC(C)C)CC[C@@H]12 [VD3, vitamin D3]
- CYP3A4 protein expression level (CYP3A4 protein): increased
- CYP3A4 gene expression level increase as compared to DMSO action group (CYP3A4 gene): about 100 fold
- CYP3A4 induction (CYP3A4 [2]): confirmed
- CYP3A4 expression induction (CYP3A4 [1]): significant expression induction

Molecule: epidermal growth factor [EGF]
- expression of VILLIN (VILLIN): high value
- expression of ANPEP (ANPEP): high value
